Reference: patent US20250367191A1, “TREATMENT OF MITOCHONDRIAL DISEASES WITH A CNS-PENETRANT SGC STIMULATOR ZAGOCIGUAT” (Tisento Therapeutics Inc., priority 2022, published 2025)

Assays:
[1] = Open-label single-arm study in MELAS (NCT04475549): safety and tolerability; assay type: in vivo, human; settings: 15 mg QD for 29 days, patients with MELAS
Source text: This study was completed at 5 investigative sites in the United States. 8 participants completed the study. This study was an open-label, single-arm study evaluating the safety, tolerability, PK, and pharmacodynamics (PD) of Compound I when administered for up to 29 days to participants diagnosed with MELAS. Because this was the first study evaluating Compound I in a patient population, the primary objective was safety and tolerability. The overall study duration for participants was a maximum of 75 days, including the screening, treatment and follow up periods (ClinicalTrials.gov identifier NCT04475549).
The primary objective of the trial was to evaluate the safety and tolerability of Compound I when administered to a patient population of subjects with MELAS, by measuring AEs, SAEs and TEAEs leading to drug discontinuation.
Compound I is a CNS-active investigational drug. Although Compound I and other similar drugs in this class have not been associated with an increased risk of suicidal thinking or behavior, it was considered it important to monitor for such ideation or behavior before and during this clinical study. Therefore, participants were appropriately monitored and closely observed for suicidal ideation and behavior or any other unusual change in behavior. […]
A complete physical examination was to include examination and assessment of the following: general appearance, lymph nodes, nervous system; cardiovascular system; head, eyes, ears, nose, throat and skin; respiratory system, neck, mental status, abdomen/liver/spleen and musculoskeletal system. […] Clinically relevant findings that were present before study drug initiation on Day 1 were recorded as part of the participant's medical history. Beginning after study drug initiation on Day 1, new clinically relevant findings or worsening of an earlier finding were recorded as an AE. Height (cm) was measured only at Screening. Weight (kg) was recorded throughout the study. Body mass index was calculated and recorded at Screening.
All BP and pulse measurements were obtained with an automated BP device (left arm was preferred) prior to blood draws (or ≥10 m after a blood draw, if necessary). Supine BP was taken at Screening (only) and recorded as the average of 2 measurements obtained at 2-minute intervals after the participant had rested quietly in a semi-recumbent/supine position for ≥5 minutes. Orthostatic vital signs were taken at all scheduled visits and participant was to rest quietly in a supine/semi-recumbent position for ≥5 minutes before supine BP and pulse measurements were recorded, then assume sitting position for ≥1 minute, and finally assume a standing position for 2 (±1) minutes before standing measurements were recorded. […]

[2] = system: participants diagnosed with MELAS; experiment: MELAS study: cerebral blood flow by arterial spin labeling (ASL); assay type: in vivo, human; settings: 15 mg QD
Protocol: Two exploratory functional neuroimaging modalities, arterial spin labeling (ASL) and functional magnetic resonance imaging (fMRI), were used to measure the potential PD effects of Compound I in the brain. While ASL quantifies regional CBF during the resting state, fMRI is a relative measure based on the blood-oxygen-level-dependent (BOLD) effect and was conducted during both a resting state and during a visual stimulus to measure brain activity.
Each individual MRI scanning session took approximately 45 minutes (maximum of ˜1 hour).
(§1) This change was observed across all brain regions of interest. Effect size throughout this disclosure is defined as the means change from baseline in a particular parameter that is being measured, divided by the standard deviation. Effect sizes closer to 1 or −1 (positive or negative dependent on the direction of movement for the specific parameter, i.e. +0.8 to +1.0 or −0.8 to −1.0) are usually considered large. Effect sizes between 0.5 and 0.8 or −0.5 and −0.8 (positive or negative dependent on the direction of movement for the specific parameter) are usually considered moderate. Effect sizes closer to below 0.5 or −0.5 (positive or negative dependent on the direction of movement for the specific parameter) are usually considered small.

[3] = system: participants diagnosed with MELAS; experiment: MELAS study: plasma biomarkers of mitochondrial dysfunction (lactate, GDF-15, FGF-21); assay type: in vivo, human
Protocol: Plasma and serum samples for biomarkers were collected from each participant. These biomarkers tested the target engagement of Compound I as well as the impact of the compound on disease. Plasma or serum samples were analyzed for concentrations of growth differentiation factor 15 (GDF-15), lactate, pyruvate, alanine, neurofilament light chain (NFL), vascular cell adhesion molecule 1, interleukin-1beta, asymmetric dimethylarginine (ADMA), L arginine, and other biomarkers relevant to the pathophysiology of mitochondrial disease, as well as their response to Compound I.
as §1

[4] = system: mitochondrial disease patient cells; settings: cited from earlier work
[5] = plasma, trend towards reduction

Fc1ccccc1Cc1nc(-c2nc(C(F)(F)F)n[nH]2)cn2ccnc12 [Compound I, zagociguat]
SAEs [1]: no SAEs observed
adverse events leading to treatment discontinuation [1]: no adverse events leading to treatment discontinuation
safety signals on clinical labs, vital signs, ECGs, or suicidal rating scale [1]: No safety signals
tolerability [1]: well tolerated
CBF on day 29 compared to baseline (day 1) ([2]; ASL, all brain regions of interest): increase of CBF
patients with increased CBF between day 1 and day 29 ([2]; individual patients): 5 of the 8
participants with reductions in GDF-15 ([3]; in vivo): 4 of 8
participants with reductions in lactate ([3]; in vivo): 6 of 8
reductions in GDF-15, greatest ([3]; participants with higher baseline concentrations): up to 39%
FGF-21, effect size [3, 5]: −0.2
GDF-15, effect size [3, 5]: −0.5
Lactate concentrations, effect size [3, 5]: −0.5
abundance of available adenosine triphosphate (ATP) ([4]; mitochondrial disease patient cells): increasing the abundance of available adenosine triphosphate (ATP)
expression levels of DDAH2 ([4]; patient cells): increased expression levels
expression levels of TFAM ([4]; patient cells): increased expression levels
